Like-named read-outs stand apart in the source and are kept apart here.
Assays:
MRSA 15903 = assay: microbe, parasite or virus in culture; type: cell-based, Staphylococcus aureus
In short: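 Two-agent combinations tested against MRSA 15903; FIC index = A/MICA + B/MICB, using MICs in combination versus alone. Below 0.5 read as clear re-sensitizing, 0.5–4 marginal or null, above 4 antagonism.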

S. aureus 15877 = assay: Antibiotic MIC by microdilution with or without sub-MIC polymer; type: cell-based, Staphylococcus aureus
S. aureus 17314 = assay: as above; type: cell-based, Staphylococcus aureus
E. coli 14182 = assay: as above; type: cell-based, Escherichia coli
S. aureus 43300 = assay: as above; type: cell-based, Staphylococcus aureus
[1] = test system: E. coli K-12 resistant wild type; type: cell-based, Escherichia coli; conditions: E. coli AG100 (w.t.)
[2] = +¼ MIC (1.6 μM) C12(5-ene)KKNC12KNH2
[3] = +⅓ MIC (2.1 μM) C12(5-ene)KKNC12KNH2

CCN1CCN(C(=O)N[C@@H](C(=O)N[C@@H]2C(=O)N3[C@@H]2SC(C)(C)[C@@H]3C(=O)O)c2ccccc2)C(=O)C1=O [Piperacillin, piperacillin]
MIC (MRSA 15903; MRSA 15903, +¼ polymer MIC (1.6 μM) NC12(KNC12K)2NH2): 64 µg/mL | MIC (MRSA 15903; MRSA 15903, +½ polymer MIC (3.1 μM) NC12(KNC12K)2NH2): 1 µg/mL | MIC (MRSA 15903; MRSA 15903, +⅓ polymer MIC (2.1 μM) NC12(KNC12K)2NH2): 4 µg/mL | MIC (MRSA 15903; S. aureus CI-15903, +polymer (¼ MIC) C12(5-ene)KKNC12KNH2): 32 µg/mL | MIC (MRSA 15903; S. aureus CI-15903, +polymer (½ MIC) C12(5-ene)KKNC12KNH2): 0.25 µg/mL | MIC (MRSA 15903; S. aureus CI-15903, +polymer (⅓ MIC) C12(5-ene)KKNC12KNH2): 4 µg/mL | MIC (MRSA 15903; S. aureus CI-15903, alone): 256 µg/mL | MIC (MRSA 15903; Staphylococcus aureus, MRSA, 24 h): 256 µg/mL | Antibiotic MIC (S. aureus 15877; [2]): 16 to 32 µg/mL | Antibiotic MIC (S. aureus 15877; +½ MIC (3.12 μM) C12(5-ene)KKNC12KNH2): 8 to 16 µg/mL | Antibiotic MIC (S. aureus 15877; [3]): 16 to 32 µg/mL | Antibiotic MIC (S. aureus 15877; no polymer (None), Table 8): 16 to 32 µg/mL | Antibiotic MIC (S. aureus 17314): 128 µg/mL | Antibiotic MIC (S. aureus 17314; S. aureus 17314, +¼ MIC (1.6 μM) C12K(KNC12K)2NH2): 128 µg/mL | Antibiotic MIC (S. aureus 17314; S. aureus 17314, +¼ MIC (1.6 μM) C14(9-ene)KKNC12KNH2): 32 µg/mL | Antibiotic MIC (S. aureus 17314; S. aureus 17314, +¼ MIC (1.6 μM) C16(9-ene)KKNC12KNH2): 4 µg/mL | Antibiotic MIC (S. aureus 17314; S. aureus 17314, +½ MIC (3.12 μM) C12K(KNC12K)2NH2): 64 µg/mL | Antibiotic MIC (S. aureus 17314; S. aureus 17314, +½ MIC (3.12 μM) C12KKNC12KNH2): 64 µg/mL | Antibiotic MIC (S. aureus 17314; S. aureus 17314, +½ MIC (3.12 μM) C14(9-ene)KKNC12KNH2): 32 µg/mL | Antibiotic MIC (S. aureus 17314; S. aureus 17314, +½ MIC (3.12 μM) C16(9-ene)KKNC12KNH2): 1 µg/mL | Antibiotic MIC (S. aureus 17314; S. aureus 17314, +⅓ MIC (2.1 μM) C12K(KNC12K)2NH2): 128 µg/mL | Antibiotic MIC (S. aureus 17314; S. aureus 17314, +⅓ MIC (2.1 μM) C14(9-ene)KKNC12KNH2): 32 µg/mL | Antibiotic MIC (S. aureus 17314; S. aureus 17314, +⅓ MIC (2.1 μM) C16(9-ene)KKNC12KNH2): 2 µg/mL | Antibiotic MIC (S. aureus 17314; S. aureus 17314, no polymer (None), Table 9): 32 µg/mL | Antibiotic MIC (S. aureus 17314; S. aureus 17314, no polymer (None), Table 10): 8 µg/mL | Antibiotic MIC (S. aureus 17314; S. aureus 17314, no polymer (None), Table 11): 128 µg/mL | Antibiotic MIC (S. aureus 17314; S. aureus 17314, no polymer (None), Table 12): 128 µg/mL | Antibiotic MIC (E. coli 14182; +¼ MIC C12K(NC8K)5NH2): >512 µg/mL | Antibiotic MIC (E. coli 14182; +½ MIC C12K(NC8K)5NH2): 512 µg/mL | Antibiotic MIC (E. coli 14182; +⅓ MIC C12K(NC8K)5NH2): >512 µg/mL | Antibiotic MIC, None (E. coli 14182; antibiotic alone (Table 15)): >512 µg/mL | Antibiotic MIC (E. coli 14182; no polymer (None), Table 14): >512 µg/mL | Antibiotic MIC in presence of C12K(NC8K)7NH2 (SEQ ID NO: 4), +¼ MIC (E. coli 14182; polymer at ¼ of its MIC): >512 µg/mL | Antibiotic MIC in presence of C12K(NC8K)7NH2 (SEQ ID NO: 4), +½ MIC (E. coli 14182; polymer at ½ of its MIC): 64 µg/mL | Antibiotic MIC in presence of C12K(NC8K)7NH2 (SEQ ID NO: 4), +⅓ MIC (E. coli 14182; polymer at ⅓ of its MIC): >512 µg/mL | Antibiotic MIC (S. aureus 43300; [2]): 4 µg/mL | Antibiotic MIC (S. aureus 43300; +¼ MIC (1.6 μM) C12K(KNC12K)2NH2): 32 µg/mL | Antibiotic MIC (S. aureus 43300; +¼ MIC (1.6 μM) C12KKNC12KNH2): 32 µg/mL | Antibiotic MIC (S. aureus 43300; +¼ MIC (1.6 μM) C16(9-ene)KKNC12KNH2): 4 µg/mL | Antibiotic MIC (S. aureus 43300; +½ MIC (3.12 μM) C12KKNC12KNH2): 8 µg/mL | Antibiotic MIC (S. aureus 43300; +½ MIC (3.12 μM) C16(9-ene)KKNC12KNH2): 2 µg/mL | Antibiotic MIC (S. aureus 43300; [3]): 4 µg/mL | Antibiotic MIC (S. aureus 43300; +⅓ MIC (2.1 μM) C12K(KNC12K)2NH2): 32 µg/mL | Antibiotic MIC (S. aureus 43300; +⅓ MIC (2.1 μM) C12KKNC12KNH2): 16 µg/mL | Antibiotic MIC (S. aureus 43300; +⅓ MIC (2.1 μM) C16(9-ene)KKNC12KNH2): 4 µg/mL | Antibiotic MIC, None ([1]; antibiotic alone (Table 16)): 2 µg/mL | Antibiotic MIC, None ([1]; antibiotic alone (Table 17)): 2 µg/mL | Antibiotic MIC in presence of C12K(NC8K)7NH2 (SEQ ID NO: 4), +¼ MIC ([1]; polymer at ¼ of its MIC (Table 16)): 2 µg/mL | Antibiotic MIC in presence of C12K(NC8K)7NH2 (SEQ ID NO: 4), +½ MIC ([1]; polymer at ½ of its MIC (Table 16)): 0.5 µg/mL | Antibiotic MIC in presence of C12K(NC8K)7NH2 (SEQ ID NO: 4), +⅓ MIC ([1]; polymer at ⅓ of its MIC (Table 16)): 1 µg/mL | Antibiotic MIC in presence of the OAK, +¼ MIC ([1]; the OAK at ¼ of its MIC (Table 17)): 1 to 2 µg/mL | Antibiotic MIC in presence of the OAK, +½ MIC ([1]; the OAK at ½ of its MIC (Table 17)): 0.5 µg/mL
